Data as given in PubChem BioAssay AID330 (DTP/NCI, 2004).
“And” between values parts separate entries of the source, which are not always exact repeats. Identical values can stand only once. Inconclusive results and toxic doses are left out. Rule for the calls: active = survival T/C of 150% or more; inactive = T/C below 125% in these data.

Tested on: P388 leukemia ip, CD2F1 mice, survival T/C
Experiment: NCI In Vivo Anticancer Drug Screen. Data for tumor model P388 Leukemia (intraperitoneal) in CD2F1 (CDF1) mice
Details: endpoint: median survival time, higher = longer survival
How it was run: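 Mice carrying the transplanted tumor received test compound or vehicle. Survival was recorded in each group, and the value is the treated-group measurement divided by that of the vehicle-treated control group.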

[1] = dose: 60.0 mg/kg/injection, schedule: Q01DX005 (ip), vehicle: saline with Tween-80
[2] = dose: 120.0 mg/kg/injection, schedule: Q01DX005 (ip), vehicle: saline with Tween-80
[3] = dose: 240.0 mg/kg/injection, schedule: Q01DX005 (ip), vehicle: saline with Tween-80
[4] = dose: 12.5 mg/kg/injection, schedule: Q01DX009 (ip), vehicle: saline with Tween-80
[5] = dose: 25.0 mg/kg/injection, schedule: Q01DX005 (ip), vehicle: Klucel (hydroxypropylcellulose) (HPC)
[6] = dose: 50.0 mg/kg/injection, schedule: Q01DX005 (ip), vehicle: Klucel (hydroxypropylcellulose) (HPC)
[7] = dose: 50.0 mg/kg/injection, schedule: Q01DX005 (ip), vehicle: saline with Tween-80
[8] = dose: 100.0 mg/kg/injection, schedule: Q01DX005 (ip), vehicle: Klucel (hydroxypropylcellulose) (HPC)
[9] = dose: 12.5 mg/kg/injection, schedule: Q01DX009 (ip), vehicle: saline
[10] = dose: 25.0 mg/kg/injection, schedule: Q01DX009 (ip), vehicle: saline
[11] = dose: 50.0 mg/kg/injection, schedule: Q01DX009 (ip), vehicle: saline with Tween-80
[12] = dose: 100.0 mg/kg/injection, schedule: Q01DX009 (ip), vehicle: saline with Tween-80
[13] = dose: 50.0 mg/kg/injection, schedule: Q01DX009 (ip), vehicle: saline

Measured: T/C

Cc1ccc(NC(=O)CCCC(=O)C(C#N)c2nc3ccccc3s2)cc1C (centres undefined)
inactive: [1] 100 % of control | [2] 98 % of control | [3] 98 % of control

CC1(C)C(C(N)=O)C(=O)NC(=O)C1C(N)=O (centres undefined)
inactive: dose: 25.0 mg/kg/injection, schedule: Q01DX009 (ip), vehicle: other 100 % of control | dose: 50.0 mg/kg/injection, schedule: Q01DX009 (ip), vehicle: other 100 % of control | dose: 100.0 mg/kg/injection, schedule: Q01DX009 (ip), vehicle: other 99 % of control | dose: 200.0 mg/kg/injection, schedule: Q01DX009 (ip), vehicle: other 100 % of control | dose: 400.0 mg/kg/injection, schedule: Q01DX009 (ip), vehicle: other 105 % of control

CC1=NCC(C)c2ccccc21 (centres undefined)
inactive: dose: 6.25 mg/kg/injection, schedule: Q01DX009 (ip), vehicle: saline with Tween-80 96 % of control | [4] 95 % of control

CC1CC12C(=O)C1=C(C(=O)C2O)C2(C)CCCC(C)(COC=O)C2C(O)C1OC=O (centres undefined)
inactive: dose: 6.25 mg/kg/injection, schedule: Q01DX005 (ip), vehicle: Klucel (hydroxypropylcellulose) (HPC) 105 % of control | dose: 12.5 mg/kg/injection, schedule: Q01DX005 (ip), vehicle: Klucel (hydroxypropylcellulose) (HPC) 105 % of control | [5] 115 % of control | [6] 101 % of control

CN1C(c2ccccc2)=C(C#N)C(=O)CC(c2ccc(Cl)cc2)N1C (centres undefined)
inactive: [1] 102 % of control | [2] 91 % of control | [3] 101 % of control

CC(C)(O)C1CCCCC1Cl (centres undefined)
inactive: [7] 104 % of control | dose: 100.0 mg/kg/injection, schedule: Q01DX005 (ip), vehicle: saline with Tween-80 107 % of control | dose: 200.0 mg/kg/injection, schedule: Q01DX005 (ip), vehicle: saline with Tween-80 104 % of control

COc1cc2c(cc1C)C1=C(C)C(=O)OC1[C@@H](O)[C@@H]2C (some centres undefined)
inactive: dose: 2.25 mg/kg/injection, schedule: Q01DX005 (ip), vehicle: Klucel (hydroxypropylcellulose) (HPC) 104 % of control | dose: 4.5 mg/kg/injection, schedule: Q01DX005 (ip), vehicle: Klucel (hydroxypropylcellulose) (HPC) 101 % of control | dose: 9.0 mg/kg/injection, schedule: Q01DX005 (ip), vehicle: Klucel (hydroxypropylcellulose) (HPC) 101 % of control | dose: 18.0 mg/kg/injection, schedule: Q01DX005 (ip), vehicle: Klucel (hydroxypropylcellulose) (HPC) 94 % of control

Cc1ccc(C)c2c1C(O)(C#Cc1ccccc1)c1c(C)ccc(C)c1C2(O)C#Cc1ccccc1 (centres undefined)
inactive: [5] 90 % of control | [6] 93 % of control | [8] 86 % of control

Cc1cc2ccccc2nc1C#N
inactive: [5] 105 % of control | [6] 102 % of control | [8] 101 % of control | dose: 200.0 mg/kg/injection, schedule: Q01DX005 (ip), vehicle: Klucel (hydroxypropylcellulose) (HPC) 109 % of control

CCOC(=O)NN
inactive: [9] 111 % of control | [10] 92 % of control

CCN(CC)C(=O)C1CCCCN1Cc1c[nH]c2ccccc12 (centres undefined)
inactive: [4] 104 % of control | dose: 25.0 mg/kg/injection, schedule: Q01DX009 (ip), vehicle: saline with Tween-80 109 % of control | [11] 101 % of control | [12] 99 % of control

CCCCCCCCCCCCCCCC[N+]1([O-])CCCCC1
inactive: [9] 101 % of control | [10] 108 % of control | [13] 100 % of control and 107 % of control

COc1cc(C2C(C)=C(C)Oc3cc4c(cc32)OCO4)cc(OC)c1OC (centres undefined)
inactive: [1] 97 % of control | [2] 91 % of control | [3] 88 % of control

C=C(C)C1CC2(C)C(C)C(OC(=O)/C(C)=C/C)CCC2C(OC(=O)C=C(C)C)C1=O (centres undefined)
inactive: dose: 75.0 mg/kg/injection, schedule: Q04DX002 (ip), vehicle: Klucel (hydroxypropylcellulose) (HPC) 99 % of control | dose: 150.0 mg/kg/injection, schedule: Q04DX002 (ip), vehicle: Klucel (hydroxypropylcellulose) (HPC) 98 % of control | dose: 300.0 mg/kg/injection, schedule: Q04DX002 (ip), vehicle: Klucel (hydroxypropylcellulose) (HPC) 106 % of control

O=C(O)C(Oc1ccc(Cl)cc1Cl)C(Oc1ccc(Cl)cc1Cl)C(=O)O (centres undefined)
inactive: dose: 60.0 mg/kg/injection, schedule: Q01DX005 (ip), vehicle: Klucel (hydroxypropylcellulose) (HPC) 101 % of control | dose: 120.0 mg/kg/injection, schedule: Q01DX005 (ip), vehicle: Klucel (hydroxypropylcellulose) (HPC) 101 % of control | dose: 240.0 mg/kg/injection, schedule: Q01DX005 (ip), vehicle: Klucel (hydroxypropylcellulose) (HPC) 100 % of control

CC(O)c1cc2c(cc1I)OCO2 (centres undefined)
inactive: dose: 100.0 mg/kg/injection, schedule: Q01DX001 (ip), vehicle: Klucel (hydroxypropylcellulose) (HPC) 106 % of control | dose: 200.0 mg/kg/injection, schedule: Q01DX001 (ip), vehicle: Klucel (hydroxypropylcellulose) (HPC) 108 % of control | dose: 400.0 mg/kg/injection, schedule: Q01DX001 (ip), vehicle: Klucel (hydroxypropylcellulose) (HPC) 107 % of control

C=CC1OCCCO1
inactive: dose: 60.0 mg/kg/injection, schedule: Q01DX005 (ip), vehicle: saline 100 % of control | dose: 120.0 mg/kg/injection, schedule: Q01DX005 (ip), vehicle: saline 100 % of control

O=NNc1nc(-c2ccccc2)ns1
inactive: dose: 1.56 mg/kg/injection, schedule: Q01DX009 (ip), vehicle: water 100 % of control | dose: 3.12 mg/kg/injection, schedule: Q01DX009 (ip), vehicle: water 100 % of control and 101 % of control | dose: 6.25 mg/kg/injection, schedule: Q01DX009 (ip), vehicle: water 104 % of control and 97 % of control | dose: 12.5 mg/kg/injection, schedule: Q01DX009 (ip), vehicle: water 100 % of control and 97 % of control | dose: 25.0 mg/kg/injection, schedule: Q01DX009 (ip), vehicle: water 101 % of control and 97 % of control | dose: 50.0 mg/kg/injection, schedule: Q01DX009 (ip), vehicle: water 100 % of control

O=C(Nc1cccc(Cl)c1)OCCCc1ccncc1
inactive: [11] 96 % of control | [12] 96 % of control

CN1C(C)(C)CC(C)(O)CC1(C)C
inactive: dose: 50.0 mg/kg/injection, schedule: Q01DX005 (ip), vehicle: saline 91 % of control | dose: 100.0 mg/kg/injection, schedule: Q01DX005 (ip), vehicle: saline 94 % of control | dose: 200.0 mg/kg/injection, schedule: Q01DX005 (ip), vehicle: saline 106 % of control

C/C(=N/NC(=S)N1CC2CCC(CC2)C1)c1cnccn1
inactive: dose: 6.25 mg/kg/injection, schedule: Q01DX005 (ip), vehicle: saline with Tween-80 102 % of control | dose: 12.5 mg/kg/injection, schedule: Q01DX005 (ip), vehicle: saline with Tween-80 117 % of control

O=C(O)C1SCCCS1
inactive: [1] 100 % of control | [2] 98 % of control | [3] 100 % of control

CCCCCCN=Cc1c(O)c(O)c(C(C)C)c2cc(C)c(-c3c(C)cc4c(C(C)C)c(O)c(O)c(C=NCCCCCC)c4c3O)c(O)c12
inactive: dose: 12.0 mg/kg/injection, schedule: Q01DX005 (ip), vehicle: saline with Tween-80 100 % of control | dose: 25.0 mg/kg/injection, schedule: Q01DX005 (ip), vehicle: saline with Tween-80 92 % of control | [7] 96 % of control

Oc1cc2c(cc1O)[C@H]1c3ccc(O)c(O)c3OC[C@@]1(O)C2
inactive: dose: 6.25 mg/kg/injection, schedule: Q01DX009 (ip), vehicle: saline 100 % of control | [9] 101 % of control | [10] 112 % of control | [13] 122 % of control | dose: 100.0 mg/kg/injection, schedule: Q01DX009 (ip), vehicle: saline 113 % of control | dose: 200.0 mg/kg/injection, schedule: Q01DX009 (ip), vehicle: saline 115 % of control
